Publication PMC4627800, “Allelic Variation of Cytochrome P450s Drives Resistance to Bednet Insecticides in a Major Malaria Vector” (PLoS Genetics, 2015)
Values belong to the compound of their own block, whether it stands above or below them.

Tests used:
FANGCYP6P9a = FANGCYP6P9a (Anopheles funestus, UniProt K7Z0P3); test: Pyrethroid depletion (metabolism) assay with recombinant enzyme; type: biochemical; settings: 20μM insecticide, 1 hour, vs -NADPH
Description: (§2) Membrane expressing recombinant CYP6P9a/-b and AgCPR, and reconstituted cytochrome b5 were added to the side of the tube and pre-incubated for 5 minutes at 30°C, with shaking at 1,200 rpm to activate the membrane. 20μM of test insecticide was then added into the final volume of 0.2ml (~2.5% v/v methanol), and reaction started by vortexing at 1,200 rpm and 30°C for 1 hour. Reactions were quenched with 0.1ml ice-cold methanol and incubated for 5 more minutes. Tubes were then centrifuged at 16,000 rpm and 4°C for 15 minutes, and 150μl of supernatant transferred into HPLC vials for analysis. Reactions were carried out in triplicates with experimental samples (+NADPH) and negative controls (-NADPH). 100μl of sample was loaded onto an isocratic mobile phase (90:10 v/v methanol to water) with a flow rate of 1ml/min, monitoring wavelength of 226nm and peaks separated with a 250mm C18 column (Acclaim 120, Dionex) on Agilent 1260 Infinity at 23°C. Enzyme activity was calculated as percentage depletion (the difference in the amount of insecticide(s) remaining in the +NADPH tubes compared with the–NADPH) and a t-test used for statistical analysis.

UGANCYP6P9a = UGANCYP6P9a (Anopheles funestus, UniProt B5AII6); test: as above; type: biochemical; settings: 20μM insecticide, 1 hour, vs -NADPH
Description: as §2

MALCYP6P9b = MALCYP6P9b (Anopheles funestus, UniProt B5AII7); test: as above; type: biochemical; settings: 20μM insecticide, 1 hour, vs -NADPH
Description: as §2

BENCYP6P9b = BENCYP6P9b (Anopheles funestus, UniProt A0A0S1S7Y0); test: as above; type: biochemical; settings: 20μM insecticide, 1 hour, vs -NADPH
Description: (§3) To establish whether allelic variation in CYP6P9a and CYP6P9b impact their metabolic activities toward insecticides, pyrethroids were screened with the recombinant enzymes from these genes. […] Membrane expressing recombinant CYP6P9a/-b and AgCPR, and reconstituted cytochrome b5 were added to the side of the tube and pre-incubated for 5 minutes at 30°C, with shaking at 1,200 rpm to activate the membrane. 20μM of test insecticide was then added into the final volume of 0.2ml (~2.5% v/v methanol), and reaction started by vortexing at 1,200 rpm and 30°C for 1 hour. Reactions were quenched with 0.1ml ice-cold methanol and incubated for 5 more minutes. Tubes were then centrifuged at 16,000 rpm and 4°C for 15 minutes, and 150μl of supernatant transferred into HPLC vials for analysis. Reactions were carried out in triplicates with experimental samples (+NADPH) and negative controls (-NADPH). 100μl of sample was loaded onto an isocratic mobile phase (90:10 v/v methanol to water) with a flow rate of 1ml/min, monitoring wavelength of 226nm and peaks separated with a 250mm C18 column (Acclaim 120, Dionex) on Agilent 1260 Infinity at 23°C. Enzyme activity was calculated as percentage depletion (the difference in the amount of insecticide(s) remaining in the +NADPH tubes compared with the–NADPH) and a t-test used for statistical analysis.

BENCYP6P9a = BENCYP6P9a (Anopheles funestus, UniProt A0A0S1RZ75); test: as above; type: biochemical; settings: 20μM insecticide, 1 hour, vs -NADPH
UGANCYP6P9b [1] = target: T1, UGANCYP6P9b (Anopheles funestus, UniProt A0A0S1S7Y0); test: as above; type: biochemical; settings: 20μM insecticide, 1 hour, vs -NADPH
FANGCYP6P9b = FANGCYP6P9b (Anopheles funestus, UniProt A0A0S1RZ61); test: as above; type: biochemical; settings: 20μM insecticide, 1 hour, vs -NADPH
Description: as §3

MALCYP6P9a = MALCYP6P9a (Anopheles funestus, UniProt B5AII6); test: as above; type: biochemical; settings: 20μM insecticide, 1 hour, vs -NADPH
Description: as §2

UGANCYP6P9b [2] = target: T1, UGANCYP6P9b; test: Fluorogenic probe O-dealkylation, initial testing; type: biochemical; settings: UGANCYP6P9b vs UGANCYP6P9a; 1μM probe
Description: Four probes: 7-ethoxyresurofin (7-ER), 7-ethoxy-4-trifluoromethylcoumarin (7-EFC), 7-methoxy-4-trifluoromethylcoumarin (MFC) and diethoxyfluorescein (DEF) were initially tested with the various recombinant CYP6P9a and CYP6P9b proteins. In a total volume of 225μl containing ~10pmol P450, buffered with 50mM potassium phosphate buffer (KPi at pH 7.4 with 5mM MgCl2), 1μM probe substrate was added. Membranes were activated for 5 minutes at 37°C in fluorescence spectrophotometer Infinite M200 (TECAN) before 25μl NADPH regeneration buffer (1mM glucose-6-phosphate (G6P), 0.25mM MgCl2, 0.1mM NADP and 1U/ml glucose-6-phosphate dehydrogenase (G6PDH) prepared in KPi pH 7.4) was added. All reactions were conducted in three replicates with negative control (–NADPH) devoid of the regeneration buffer. […]. Results were analysed using Magellan v6.2 software.

CYP1A2 Glu^318Asp = test system: CYP1A2 Glu^318Asp; parameters: method as in PMID 7910007; settings: human CYP1A2 ref [37]; cited from earlier work
CYP6P9a/CYP6P9b = test: in vitro; type: biochemical, Anopheles funestus; settings: inhibition of DEF dealkylation; MALCYP6P9a, BENCYP6P9a, MALCYP6P9b, UGANCYP6P9b; DDT value for all proteins excepting UGANCYP6P9b
Description: (§1) To further assess differences in the degree of binding of the various recombinant proteins to insecticides from different classes, inhibition assay was conducted with DEF and ten insecticides (inhibitors). The potent P450s inhibitor miconazole was utilised as a positive control inhibitor. IC50 determination was conducted as described in previous studies. […]. The 96 well-plate was pre-incubated for 5 minutes at 37°C and then 25μl regeneration buffer (7.8mg glucose-6-phosphate (G6P), 0.25mM MgCl2, 1.7mg NADP, 6U/ml glucose-6-phosphate dehydrogenase and 2% w/v NaHCO3) incorporated. Fluorescence was monitored for 21 cycles at interval of 1 minute with shaking at every step. Results were analysed using Magellan v6.2 software and inhibition at each inhibitor concentration and incubation time calculated as residual control activity towards DEF.

UGANCYP6P9b [3] = target: T1, UGANCYP6P9b; test: Inhibition of DEF dealkylation by insecticides (IC50); type: biochemical; settings: compared with averagely 10μM for the other proteins
Description: as §1

SMILES: Cc1c(COC(=O)[C@@H]2[C@H](/C=C(\Cl)C(F)(F)F)C2(C)C)cccc1-c1ccccc1 (racemic) [bifenthrin]
Percentage depletion (FANGCYP6P9a): 16.6±5.41% | Percentage depletion (UGANCYP6P9a): 50.31±3.8 % | Percentage depletion (MALCYP6P9b): more than 80% | Percentage depletion (MALCYP6P9b; listed as Bifenthrin): 81.6±0.25 % | Percentage depletion (BENCYP6P9b): 89.19±1.01 % | Percentage depletion (BENCYP6P9a): 51.02±0.75 % | Percentage depletion (UGANCYP6P9b [1]): 88.8±1.61 % | Percentage depletion (FANGCYP6P9b): 22.38±5.08% | Percentage depletion (MALCYP6P9a): 60.48±2.65 %

SMILES: CC1(C)[C@H](C(=O)O[C@H](C#N)c2cccc(Oc3ccccc3)c2)[C@@H]1/C=C(\Cl)C(F)(F)F (racemic) [λ-cyhalothrin]
Percentage depletion (FANGCYP6P9a): 15.46±4.43% | Percentage depletion (UGANCYP6P9a): 47.74±1.5% | Percentage depletion (BENCYP6P9b): 49.35±4.41 % | Percentage depletion (BENCYP6P9a): 52.45±1.74 % | Percentage depletion (UGANCYP6P9b [1]): 78.76±1.31 % | Percentage depletion (FANGCYP6P9b): 15.49±3.13% | Percentage depletion (MALCYP6P9a): 75.41±1.72%

O-dealkylation activity, fold of UGANCYP6P9a (UGANCYP6P9b [2]): 17.9 fold
SMILES: CCOc1ccc2c(C(F)(F)F)cc(=O)oc2c1 [7-EFC, 7-ethoxy-4-trifluoromethylcoumarin]

SMILES: CCOc1ccc2ccc(=O)oc2c1 [7-ethoxycoumarin]
increase of Kcat of O-dealkylation by Glu^318Asp substitution (CYP1A2 Glu^318Asp): 13 fold

SMILES: Clc1ccc(C(c2ccc(Cl)cc2)C(Cl)(Cl)Cl)cc1 [DDT]
IC50 (CYP6P9a/CYP6P9b): ~10 µM | IC50 (UGANCYP6P9b [3]): much higher value
